Consider 69 compounds from ChEMBL document CHEMBL1154198, “Chemical genetics of Plasmodium falciparum” (Nature, 2010).

The subject of assay [1] is Plasmodium falciparum. Nature of the assay: ST_JUDE: Plasmodium falciparum 3D7 EC50 (uM) as measured by SYBR green dye. Type of assay: functional, organism-based.
The subject of assay [2] is Plasmodium falciparum. The experiment in a line: ST_JUDE: Plasmodium falciparum K1 EC50 (uM) as measured by SYBR green dye. Type of assay: functional, organism-based.

pEC50: −log10 of the molar value.

One may read the pEC50 as the EC50 on a negative log10 scale, so that one unit is a factor of ten. A high value points to a low EC50. Regarding `CCOc1ccc(/C=C2\Oc3c(ccc(O)c3CN(CC)CC)C2=O)cc1`, the negative logarithm of the EC50 (pEC50) in the assay on Plasmodium falciparum [1] is < 4.82; with Plasmodium falciparum [2], 5.29.
On to `Cc1cccc(NC(c2ccc(Br)cc2)c2ccc3cccnc3c2O)n1` (stereo not drawn), for which the pEC50 in the assay with Plasmodium falciparum [1] was 5.71; in the assay on Plasmodium falciparum [2] it was 5.45.
Consider `COC(=O)c1c(S(=O)(=O)N2CCCN(C)CC2)sc2c1CCN(CC(C)c1ccccc1)C2` (stereo not drawn), for which the pEC50 in the assay with Plasmodium falciparum [1] and in the assay on Plasmodium falciparum [2] was < 4.82 throughout.
With `COc1ccc2cc3cc(C(=O)Nc4ccccc4N4CCN(C)CC4)sc3nc2c1`, the pEC50 with Plasmodium falciparum [1] and with Plasmodium falciparum [2] was < 4.82 throughout.
As for `CSc1cccc(NC(=O)C2c3ccccc3C(=O)N(CC(C)C)C2c2cccs2)c1` (stereo not drawn), the negative logarithm of the EC50 (pEC50) with Plasmodium falciparum [1] was 6.89; with Plasmodium falciparum [2], 6.70.
For `CCC(=O)NC(c1ccco1)c1cc(Cl)c2cccnc2c1O` (stereo not drawn), in that order: < 4.82 and 5.57.
The matching figures for `CCCSc1nc2sc3c(c2c(=O)n1-c1ccc(C)cc1)CCN(Cc1ccccc1)C3`: 5.88 and 5.79.
On to `COc1cccc(Nc2nc(N3CCN(CCO)CC3)nc3c2cnn3-c2ccccc2)c1`, for which the pEC50 in the assay on Plasmodium falciparum [1] is 5.48; with Plasmodium falciparum [2], 5.33.
On to `CCOC(=O)C1=C(C)N=c2s/c(=C\c3cc(OC)ccc3O)c(=O)n2C1c1ccccc1` (stereo not drawn), for which the pEC50 in the assay on Plasmodium falciparum [1] and in the assay on Plasmodium falciparum [2] was < 4.82 throughout.
As to `CCCCOc1cccc(C(=O)Nc2ccc(CN3CCCCC3)cc2)c1`, the negative-log EC50 (pEC50) in the assay with Plasmodium falciparum [1] and with Plasmodium falciparum [2] was < 4.82 in each case.
Regarding `CCC(=O)C1=C(c2ccc(F)cc2)N(C(=O)CC)n2cnnc2S1`, the pEC50 in the assay on Plasmodium falciparum [1] and in the assay on Plasmodium falciparum [2] was < 4.82 each time.
Turning to `CN(C)CCCNC(=O)c1cc(-c2ccc(Cl)s2)nc2ccccc12`, the pEC50 with Plasmodium falciparum [1] and in the assay with Plasmodium falciparum [2] was < 4.82 throughout.
As for `Cc1cc(N2CCN(C)CC2)nc2ccc(NC(=S)NCCCN3CCc4ccccc4C3)cc12`, the pEC50 with Plasmodium falciparum [1] was 5.83; in the assay with Plasmodium falciparum [2], 5.18.
The matching figures for `O=[N+]([O-])c1cc(C(F)(F)F)ccc1NCCCNS(=O)(=O)c1ccc(Cl)cc1`: < 4.82 and < 4.82.
The matching figures for `CCOc1ccc(C2c3cccn3CCN2C(=O)NCc2ccccc2)cc1` (stereo not drawn): 5.40 and < 4.82.
For `CCOC(=O)c1ccc(NC(=O)c2cc([N+](=O)[O-])ccc2NC(=O)CNC2CCN(Cc3ccccc3)CC2)cc1`, in that order: 5.90 and 5.43.
For `O=C(c1ccco1)N(Cc1cccnc1)c1nc2ccc(F)cc2s1`, the negative-log EC50 (pEC50) with Plasmodium falciparum [1] and in the assay with Plasmodium falciparum [2] was < 4.82 throughout.
As for `COc1ccc(NC(=O)COc2c(C)cc(Br)cc2C)c(OC)c1`, the negative logarithm of the EC50 (pEC50) is < 4.82 in the assay with Plasmodium falciparum [1] and 5.26 in the assay on Plasmodium falciparum [2].
Take `CCCOc1ccc(Oc2nc(NCC)nc(OC)n2)nn1`: the values for the pEC50 in the assay on Plasmodium falciparum [1] and in the assay with Plasmodium falciparum [2] were 5.73 and 5.37, respectively.
With `Cc1ccc(CN2CCCN(Cc3ccc(F)cc3)C2c2ccccc2F)cc1` (stereo not drawn), the figures for the pEC50 with Plasmodium falciparum [1] and with Plasmodium falciparum [2] were 5.38 and < 4.82, respectively.
For `CC[n+]1c(/C=C/c2ccc(N(C)C)cc2)sc2cc(NC(C)=O)ccc21`, in that order: 5.48 and 5.36.
Consider `O=C(c1cccc(Cl)c1)N1CCN(c2ccc([N+](=O)[O-])c(NC3CC3)c2)CC1`, for which the pEC50 with Plasmodium falciparum [1] and in the assay with Plasmodium falciparum [2] was 5.43 in each case.
For `CCOC(=O)C(C)Sc1nc2ccccc2c(=O)n1CC1CCCCC1` (stereo not drawn), the negative-log EC50 (pEC50) in the assay with Plasmodium falciparum [1] and in the assay on Plasmodium falciparum [2] was < 4.82 in each case.
As to `Cc1c(C(=O)NCCCn2ccnc2)sc2nc(-c3cccc([N+](=O)[O-])c3)cn12`, the pEC50 in the assay on Plasmodium falciparum [1] was < 4.82; in the assay with Plasmodium falciparum [2] it was 5.04.
With `Cc1c(C(=O)Nc2ccc(Cl)cc2Cl)cccc1[N+](=O)[O-]`, the pEC50 with Plasmodium falciparum [1] and in the assay on Plasmodium falciparum [2] was < 4.82 throughout.
Consider `Cc1ccc2nc(NNC(=O)c3ccc(S(=O)(=O)N(C)C)cc3)sc2c1`, for which the pEC50 in the assay with Plasmodium falciparum [1] was 5.30; in the assay on Plasmodium falciparum [2], 5.27.
The matching figures for `CCCN(CCC)CCCNC(=O)c1cc2c(-c3ccc(OC)c(OC)c3)nn(C)c2s1`: 5.39 and < 4.82.
The matching figures for `COc1ccc(C2C3=C(O)CC(c4ccccc4)CC3=NC(C)=C2C(=O)OCC(C)C)cc1OC` (stereo not drawn): < 4.82 and 5.41.
The matching figures for `COc1ccc(C(C)(C)C)cc1S(=O)(=O)Nc1ccc(Nc2nc(C)cc(N(C)C)n2)cc1`: 6.13 and 5.88.
`O=C(Cc1ccc(Br)cc1)OCC(=O)c1ccc(F)cc1`: the negative logarithm of the EC50 (pEC50) in the assay with Plasmodium falciparum [1] and in the assay on Plasmodium falciparum [2] was < 4.82 each time.
Turning to `CS(=O)(=O)N(Cc1ccccc1)c1ccccc1C(=O)Nc1cc(Cl)ccc1Cl`, the negative logarithm of the EC50 (pEC50) with Plasmodium falciparum [1] is 5.21; in the assay with Plasmodium falciparum [2], 5.34.
For `CCN(CC)CCNC(=O)c1ccc2c(c1)sc1nc(-c3ccc(F)cc3)cn12`, in that order: 6.01 and 5.72.
Regarding `COc1ccc(NC(=O)c2sc3ccccc3c2Cl)c(OC)c1`, the negative-log EC50 (pEC50) with Plasmodium falciparum [1] and in the assay with Plasmodium falciparum [2] was < 4.82 in each case.
Regarding `CCOc1ccccc1N1CCN(Cc2cc(Br)cc(Br)c2O)CC1`, the pEC50 is 5.08 in the assay on Plasmodium falciparum [1] and 5.42 in the assay with Plasmodium falciparum [2].
For `CCOc1cccc(-c2cc(C(=O)Nc3cc(C)ccn3)c3ccccc3n2)c1`, in that order: < 4.82 and < 4.82.
For `CCOc1ccc(S(=O)(=O)NC2=C/C(=N\c3ccc(O)cc3)C(=O)c3ccccc32)cc1`, the values for the pEC50 in the assay with Plasmodium falciparum [1] and with Plasmodium falciparum [2] were 5.90 and 5.99, respectively.
For `CC1CN(C(=O)c2ccc(I)cc2)CC(C)O1` (stereo not drawn), in that order: 5.56 and 5.82.
In the case of `COc1ccc(-n2c(=O)c3c4c(sc3n3c(SCc5ccccc5)nnc23)COC(C)(C)C4)cc1`, the results for the pEC50 with Plasmodium falciparum [1] and in the assay on Plasmodium falciparum [2] were 4.95 and < 4.82, respectively.
`Fc1ccccc1Nc1nc(NCc2ccccc2)c2ccccc2n1`: the figures for the pEC50 in the assay with Plasmodium falciparum [1] and in the assay on Plasmodium falciparum [2] were 5.46 and 5.04, respectively.
For `COc1ccc(N2C(=O)c3cccnc3C2Nc2ccc(C)cc2Cl)cc1` (stereo not drawn), in that order: 5.40 and 5.42.
For the compound `CCOC(=O)C1=CN(Cc2ccc(F)cc2)C=C(C(=O)OCC)C1c1cc(OC)c(OC)c(OC)c1`, the negative logarithm of the EC50 (pEC50) is < 4.82 in the assay with Plasmodium falciparum [1] and 6.28 in the assay on Plasmodium falciparum [2].
For `COc1cc(-c2nc(-c3ccccc3)c(-c3ccccc3)[nH]2)cc(OC)c1OC`, in that order: < 4.82 and < 4.82.
The matching figures for `COc1ccc(C2C(C(=O)Nc3ccc(OC)cc3OC)c3ccccc3C(=O)N2C)cc1` (stereo not drawn): 5.38 and 5.32.
For `CN(C)CCNCCCOc1ccc(Cl)cc1Cc1ccccc1`, the values for the pEC50 in the assay with Plasmodium falciparum [1] and with Plasmodium falciparum [2] were 5.23 and < 4.82, respectively.
`CC(C)(C)c1ccc(C(=O)Nc2cccc(NC(=O)c3cccs3)c2)cc1`: the pEC50 with Plasmodium falciparum [1] and in the assay on Plasmodium falciparum [2] was < 4.82 throughout.
`CCC(=O)N1c2ccc(S(=O)(=O)CCC(=O)Nc3ccc(Br)c(C)c3)cc2CC1C` (stereo not drawn): the pEC50 in the assay with Plasmodium falciparum [1] and in the assay with Plasmodium falciparum [2] was < 4.82 in each case.
As for `Cc1nn(-c2ccccc2)c2ncc(C(=O)Nc3cccc(Cl)c3)c(O)c12`, the figures for the negative logarithm of the EC50 (pEC50) in the assay on Plasmodium falciparum [1] and in the assay on Plasmodium falciparum [2] were < 4.82 and 5.37, respectively.
The matching figures for `C[n+]1ccccc1/C=C/c1ccc(Br)cc1`: 5.85 and 5.84.
For the compound `Cc1cc(C)c(S(=O)(=O)N(C)CC(=O)Nc2cccc(C(F)(F)F)c2)c(C)c1`, the pEC50 in the assay with Plasmodium falciparum [1] and with Plasmodium falciparum [2] was < 4.82 throughout.
In the case of `O=C1CC(c2ccc(Cl)cc2Cl)C2=C(CC(c3ccc(F)cc3)CC2=O)N1` (stereo not drawn), the negative-log EC50 (pEC50) in the assay on Plasmodium falciparum [1] and in the assay with Plasmodium falciparum [2] was < 4.82 throughout.
As for `CC(=O)CCc1ccc(OCCN2CCOCC2)cc1`, the negative logarithm of the EC50 (pEC50) in the assay on Plasmodium falciparum [1] and in the assay on Plasmodium falciparum [2] was < 4.82 in each case.
As to `Cc1ccc(S(=O)(=O)NCC(c2cccnc2)N2CCN(c3ccccc3F)CC2)cc1` (stereo not drawn), the negative-log EC50 (pEC50) with Plasmodium falciparum [1] and in the assay on Plasmodium falciparum [2] was < 4.82 throughout.
On to `Cc1ccc(Oc2c(C(F)(F)F)oc3c(CN4CCN(C)CC4)c(O)ccc3c2=O)cc1`, for which the pEC50 with Plasmodium falciparum [1] is 5.84; with Plasmodium falciparum [2], 5.91.
As for `CN1CCN(c2ccc(NC(=O)c3cccc(I)c3)cc2Cl)CC1`, the negative-log EC50 (pEC50) with Plasmodium falciparum [1] is 5.13; in the assay on Plasmodium falciparum [2] it was < 4.82.
`Cc1cccc2sc(NNC(=O)c3ccc(S(=O)(=O)N4CCCCC4C)cc3)nc12` (stereo not drawn): the pEC50 in the assay on Plasmodium falciparum [1] and with Plasmodium falciparum [2] was < 4.82 throughout.
As for `COc1cc(NC(=O)N2CCn3cccc3C2c2ccc(F)cc2)cc(OC)c1OC` (stereo not drawn), the pEC50 was 5.38 in the assay on Plasmodium falciparum [1] and 5.43 with Plasmodium falciparum [2].
The matching figures for `CC(C)(O)C#Cc1ccc([C@@H]2C[C@H]3CN(Cc4cccc(Cl)c4)C(=O)[C@]34CCCN24)cc1`: 5.33 and 5.24.
For `CCN1CCN(c2cc(C)c3cc(NC(=S)N4CCC(N5CCCCC5)CC4)ccc3n2)CC1`, the negative logarithm of the EC50 (pEC50) with Plasmodium falciparum [1] was 5.23; in the assay with Plasmodium falciparum [2], 5.10.
For the compound `O=C(Cc1ccccc1)N1CCOc2c(cc(-c3csc4ccccc34)cc2OCCc2ccccn2)C1`, the results for the negative logarithm of the EC50 (pEC50) with Plasmodium falciparum [1] and with Plasmodium falciparum [2] were 5.79 and 6.12, respectively.
For `CCOCc1cc(CN2CCN(c3cccc(C(F)(F)F)c3)CC2)c(O)c2ncccc12`, in that order: 5.85 and 5.83.
For `O=C(NC(c1cccc([N+](=O)[O-])c1)c1cc(Cl)c2cccnc2c1O)c1cccnc1` (stereo not drawn), in that order: 5.33 and 5.56.
For `O=C(O)/C=C1\SC(=O)NC1=O`, in that order: < 4.82 and < 4.82.
Regarding `COc1cc(/C=C/C(=O)Nc2cccc(Br)c2)cc(OC)c1OC`, the negative-log EC50 (pEC50) in the assay with Plasmodium falciparum [1] and in the assay with Plasmodium falciparum [2] was < 4.82 throughout.
For `O=C1CC(c2ccc(F)cc2F)C2=C(CC(c3ccc(F)cc3)CC2=O)N1` (stereo not drawn), the pEC50 in the assay with Plasmodium falciparum [1] is 5.33; in the assay with Plasmodium falciparum [2], 6.14.
For `Cc1ccc2sc(NNC(=O)c3ccc(S(=O)(=O)N(C)C)cc3)nc2c1C`, in that order: < 4.82 and 5.42.
Turning to `COc1nc(-c2ccncc2)nc2ccccc12`, the negative logarithm of the EC50 (pEC50) with Plasmodium falciparum [1] and in the assay on Plasmodium falciparum [2] was < 4.82 throughout.
As to `CCOc1cccc2sc(N(Cc3cccnc3)C(=O)C3CCCCC3)nc12`, the pEC50 was 5.52 in the assay with Plasmodium falciparum [1] and 5.65 in the assay with Plasmodium falciparum [2].
As for `COc1ccc(NC(=O)c2c(-c3c(Cl)cccc3Cl)noc2C)c(OC)c1`, the pEC50 in the assay with Plasmodium falciparum [1] is < 4.82; with Plasmodium falciparum [2] it was 5.27.
The matching figures for `CCO/C(O)=C1\C(CC)=NC2=C(C(=O)CC(C)(C)C2)C1c1ccc(Cl)cc1Cl` (stereo not drawn): 5.88 and 5.92.
